From EP2987533B1, “7-substituted piperazin-1-yl fluoroquinolone compounds, their use in the treatment of cancer, pharmaceutical compositions and a method for preparation” (priority 2014, dated 2016)

Legend:
Test in all cases: NCI one-dose SRB growth assay
Type in all cases: cell-based
A498 = conditions: Homo sapiens; A498 (Renal Cancer), 10^-5 M, 48 h; read-out: % Growth Inhibition (GI %)
Procedure, shortened: (§1)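 Percent growth values compare treated with untreated cells after 48 h exposure to 10^-5M compound, determined by spectrophotometric sulforhodamine B staining.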

A549/ATCC = conditions: Homo sapiens; A549/ATCC (Non-Small Cell Lung Cancer), 10^-5 M, 48 h; read-out: % Growth Inhibition (GI %)
Procedure, shortened: as §1

CAKI-1 = conditions: Homo sapiens; CAKI-1 (Renal Cancer), 10^-5 M, 48 h; read-out: % Growth Inhibition (GI %)
Procedure, shortened: as §1

HCC-2998 = conditions: Homo sapiens; HCC-2998 (Colon Cancer), 10^-5 M, 48 h; read-out: % Growth Inhibition (GI %)
Procedure, shortened: as §1

HCT-116 = conditions: Homo sapiens; HCT-116 (Colon Cancer), 10^-5 M, 48 h; read-out: % Growth Inhibition (GI %)
Procedure, shortened: as §1

HL-60(TB) = conditions: Homo sapiens; HL-60(TB) (Leukemia), 10^-5 M, 48 h; read-out: % Growth Inhibition (GI %)
HOP-92 = conditions: Homo sapiens; HOP-92 (Non-Small Cell Lung Cancer), 10^-5 M, 48 h; read-out: % Growth Inhibition (GI %)
Procedure, shortened: as §1

IGROV1 = conditions: Homo sapiens, IGROV-1; IGROV1 (Ovarian Cancer), 10^-5 M, 48 h; read-out: % Growth Inhibition (GI %)
KM12 = conditions: Homo sapiens; KM12 (Colon Cancer), 10^-5 M, 48 h; read-out: % Growth Inhibition (GI %)
Procedure, shortened: as §1

M14 = conditions: Homo sapiens; M14 (Melanoma), 10^-5 M, 48 h; read-out: % Growth Inhibition (GI %)
Procedure, shortened: as §1

MDA-MB-435 = conditions: Homo sapiens; MDA-MB-435 (Melanoma), 10^-5 M, 48 h; read-out: % Growth Inhibition (GI %)
Procedure, shortened: as §1

MDA-MB-468 = conditions: Homo sapiens; MDA-MB-468 (Breast Cancer), 10^-5 M, 48 h; read-out: % Growth Inhibition (GI %)
Procedure, shortened: as §1

NCI-H322M = conditions: Homo sapiens; NCI-H322M (Non-Small Cell Lung Cancer), 10^-5 M, 48 h; read-out: % Growth Inhibition (GI %)
NCI-H460 = conditions: Homo sapiens; NCI-H460 (Non-Small Cell Lung Cancer), 10^-5 M, 48 h; read-out: % Growth Inhibition (GI %)
NCI/ADR-RES = conditions: Homo sapiens; NCI/ADR-RES (Ovarian Cancer), 10^-5 M, 48 h; read-out: % Growth Inhibition (GI %)
Procedure, shortened: as §1

OVCAR-3 = conditions: Homo sapiens; OVCAR-3 (Ovarian Cancer), 10^-5 M, 48 h; read-out: % Growth Inhibition (GI %)
Procedure, shortened: as §1

OVCAR-4 = conditions: Homo sapiens; OVCAR-4 (Ovarian Cancer), 10^-5 M, 48 h; read-out: % Growth Inhibition (GI %)
Procedure, shortened: as §1

OVCAR-8 = conditions: Homo sapiens; OVCAR-8 (Ovarian Cancer), 10^-5 M, 48 h; read-out: % Growth Inhibition (GI %)
Procedure, shortened: as §1

PC-3 = conditions: Homo sapiens; PC-3 (Prostate Cancer), 10^-5 M, 48 h; read-out: % Growth Inhibition (GI %)
Procedure, shortened: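 Screening used the NCI Drug Evaluation Branch protocol on roughly 60 human cancer cell lines. Compound exposure: 10^-5M, 48 h. Cell mass quantified by sulforhodamine B binding, read by spectrophotometer, reported as % growth compared with untreated control.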

SK-MEL-28 = conditions: Homo sapiens; SK-MEL-28 (Melanoma), 10^-5 M, 48 h; read-out: % Growth Inhibition (GI %)
Procedure, shortened: as §1

SK-MEL-5 = conditions: Homo sapiens; SK-MEL-5 (Melanoma), 10^-5 M, 48 h; read-out: % Growth Inhibition (GI %)
Procedure, shortened: as §1

SN12C = conditions: Homo sapiens; SN12C (Renal Cancer), 10^-5 M, 48 h; read-out: % Growth Inhibition (GI %)
Procedure, shortened: as §1

SR = conditions: Homo sapiens; SR (Leukemia), 10^-5 M, 48 h; read-out: % Growth Inhibition (GI %)
Procedure, shortened: as §1

T-47D = conditions: Homo sapiens, T47D; T-47D (Breast Cancer), 10^-5 M, 48 h; read-out: % Growth Inhibition (GI %)
Procedure, shortened: as §1

U251 = conditions: Homo sapiens, U-251; U251 (CNS Cancer), 10^-5 M, 48 h; read-out: % Growth Inhibition (GI %)
Procedure, shortened: as §1

UO-31 = conditions: Homo sapiens; UO-31 (Renal Cancer), 10^-5 M, 48 h; read-out: % Growth Inhibition (GI %)
Procedure, shortened: as §1

Work on `CCn1cc(C(=O)O)c(=O)c2cc(F)c(N3CCN(S(=O)(=O)c4cccc5ccccc45)CC3)cc21` [Compound 7a] yielded an inhibition at 10 µM (A498) greater than 100%, an inhibition at 10 µM (A549/ATCC) of 96.2% and an inhibition at 10 µM (CAKI-1) of 99.1%. For the same compound, the inhibition at 10 µM (HCC-2998) was 68.4%, the inhibition at 10 µM (HCT-116) was 94.5% and the inhibition at 10 µM (HL-60(TB)) was greater than 100%. For the same compound, the inhibition at 10 µM (HOP-92) was greater than 100%, the inhibition at 10 µM (IGROV1) was 86.3% and the inhibition at 10 µM (KM12) was 88.3%. The inhibition at 10 µM (M14) was 82.1%, the inhibition at 10 µM (MDA-MB-435) was 88.6% and the inhibition at 10 µM (MDA-MB-468) was 95.2%. The inhibition at 10 µM (NCI-H322M) was greater than 100%, the inhibition at 10 µM (NCI-H460) was 92% and the inhibition at 10 µM (NCI/ADR-RES) was 78.7%. The inhibition at 10 µM (OVCAR-3) was greater than 100%, the inhibition at 10 µM (OVCAR-4) was 76.2% and the inhibition at 10 µM (OVCAR-8) was 91.6%. For the same compound, the inhibition at 10 µM (PC-3) was 92.2%, the inhibition at 10 µM (SK-MEL-28) was 40.8% and the inhibition at 10 µM (SK-MEL-5) was greater than 100%. It also gave an inhibition at 10 µM (SN12C) of 88.1%, an inhibition at 10 µM (SR) of 97.8% and an inhibition at 10 µM (T-47D) of 94.7%. For the same compound, the inhibition at 10 µM (U251) was 85.8% and the inhibition at 10 µM (UO-31) was greater than 100%.
